The text below walks through data of patent publication US4618681A, “Aryl substituted 1H-4,5-dihydro-1,2,3-triazoles as anticonvulsants” (priority 1984, dated 1986).

As a reminder, the ED50 is the midpoint of the dose-response relation.

Entries after “also recorded” stand apart in the source; their conditions may differ. Read-outs that look alike come from different tables or passages of the source.

Data set [1] is described as follows: Phase I anticonvulsant screening (MES and scMet tests). The conditions noted are these: for Anticonvulsant Activity Group Classification: Phase I screening, MES and scMet tests, mouse; for signs of neurological deficit: at 600 mg/kg (compound 7) and 300 mg/kg (compound 12); for anticonvulsant potency: in words.
Data set [2] in a line: in vivo. Details: species or system mice.
Description: (§1) The profile of toxicity for each test drug was established by the following procedures: firstly, the minimal neurotoxic dose (TD50) was determined by the rotorod procedure at the time of peak neurotoxic effect. When a normal mouse is placed on a knurled rod one inch in diameter rotating at a speed of six rpm it can maintain its equilibrium for long periods of time. Neurological deficit is indicated by inability of the mouse to maintain its equilibrium for one minute in each of three trials on this rotating rod. Neurological deficit in rats is indicated by ataxia, loss of placing response and muscle tone. […] These observations also provide preliminary information essential for the subsequent determination of the HD50 and LD50. The HD50 represents the median dose at which 50% of animals lose their righting reflex.
Data set [3] can be described thus: Subcutaneous Metrazol Seizure Threshold Test (sc Met) in rats. Format: in vivo, rats (male albino, Sprague Dawley). The settings on record: Rattus norvegicus, po, read-out: ED50 sc Met.
Description: (§2) The drugs were administered either orally or intraperitoneally in a volume of 0.01 ml/g body weight in mice and 0.04 ml/10 g in rats. All tests were conducted at the previously determined time of peak drug effect.
(§3) The profile of anticonvulsant activity for each substance was established by five tests: one electrical and four chemical. The electrical test employed was the maximal electroshock seizure pattern test. […] Except for the sc Strych Test, these tests measure the ability of anticonvulsants to afford complete protection against threshold seizures induced by the subcutaneous injection of the CD97 of the convulsant agent.
(§4) All convulsants were administered subcutaneously into a loose fold of skin on the back of the neck in a volume of 0.01 ml/g body weight in mice; Metrazol was injected in a volume of 0.02 ml/10 g body weight in rats. The convulsant drugs were administered at the previously determined time of peak anticonvulsant action of the drug under study. […] Except for strychnine, absence of a five-second episode of clonic spasms (threshold seizure) was taken as protection. In the case of strychnine, complete abolition of the hindleg tonic extension was taken as protection.
The conditions of data set [4]: mice; for effectiveness by the sc Pic test: Phase V, i.p.
Description: as §3, §4
For data set [5] the following is noted: mice.
Description: (§5) All animals were allowed free access to both food (S/L Custom Lab Diet-7) and water, except when they were removed from their cages for the experimental procedure.
as §2, §3
Data set [6] can be described thus: Subcutaneous Metrazol Seizure Threshold Test (sc Met) in mice. The settings on record: for effectiveness by the sc Met test: Phase V; for effectiveness by the sc Met test / ED50 sc Met / Time of Test / time of peak effect (TPE), sc Met: i.p.
Description: as §5, §2, §3, §4
The conditions of data set [7]: Phase V, mice, i.p.
Description: as §3, §4
For data set [8] the following is noted: mice, i.p.
Description: as §5, §2, §3, §4
The format of data set [9] is in vivo. The conditions noted are these: Phase V, mice, i.p.
Description: as §3, §4
A short description of data set [10]: Time of peak effect (TPE) over several tests in rats. The settings on record: p.o., Compound 9: toxicity, MES and sc Met tests.
Description: as §2
Data set [11] in a line: Time of peak effect (TPE) over several tests in mice. The settings on record: i.p.
Description: as §2
Data set [12] is described as follows: in vivo. The settings on record: mice, i.p., 24 hour period.
Description: as §1
The mark [13] stands for this setting: Mus musculus, ip, read-out: ED50 sc Met.
Setting [14] is: Mus musculus, po, read-out: ED50 scMet.

Regarding `FC(F)(F)c1cccc(N2N=NCC2c2ccccc2Cl)c1` (stereo not drawn) [Compound 1, 1-m-trifluoromethylphenyl-5-(o-chlorophenyl)-Δ^2-1,2,3-triazoline], the “Anticonvulsant Activity Group Classification” value in [1] is “II (Class II compounds show anticonvulsant activity at doses greater than 100 mg/kg or show activity at 100 mg/kg which is not reinforced by similar activity at 300 mg/kg)”.

Regarding `FC(F)(F)c1ccc(N2N=NCC2c2ccccc2Cl)cc1` (stereo not drawn) [Compound 2], the “Anticonvulsant Activity Group Classification” value in data set [1] is listed as “II (Class II compounds show anticonvulsant activity at doses greater than 100 mg/kg or show activity at 100 mg/kg which is not reinforced by similar activity at 300 mg/kg)”.

As for `CCc1ccc(N2N=NCC2c2ccccc2Cl)cc1` (stereo not drawn) [Compound 3, 1-(p-Ethylphenyl)-5-(o-chlorophenyl)-Δ^2-1,2,3-triazoline], in data set [1], the “Anticonvulsant Activity Group Classification” value is reported as “II (Class II compounds show anticonvulsant activity at doses greater than 100 mg/kg or show activity at 100 mg/kg which is not reinforced by similar activity at 300 mg/kg)”.

Consider `O=[N+]([O-])c1ccccc1C1CN=NN1c1cccc(Cl)c1` (stereo not drawn) [Compound 4, 1-(m-Chlorophenyl)5-(o-nitrophenyl)-Δ^2-1,2,3-triazoline], for which the “Anticonvulsant Activity Group Classification” value in data set [1] is “II (Class II compounds show anticonvulsant activity at doses greater than 100 mg/kg or show activity at 100 mg/kg which is not reinforced by similar activity at 300 mg/kg)”.

Consider `O=[N+]([O-])c1cccc(N2N=NCC2c2ccc(Cl)cc2Cl)c1` (stereo not drawn) [Compound 5, 1-(m-Nitrophenyl)-5-(2,4-dichlorophenyl)-Δ^2-1,2,3-triazoline], for which the “Anticonvulsant Activity Group Classification” value in data set [1] was “II (Class II compounds show anticonvulsant activity at doses greater than 100 mg/kg or show activity at 100 mg/kg which is not reinforced by similar activity at 300 mg/kg)”.

On to `Clc1cccc(Cl)c1C1CN=NN1c1ccc(Br)cc1` (stereo not drawn) [Compound 6, 1-(p-Bromophenyl)-5-(2,6-dichlorophenyl)-Δ^2-1,2,3-triazoline], for which, in [1], the “Anticonvulsant Activity Group Classification” value is recorded as “II (Class II compounds show anticonvulsant activity at doses greater than 100 mg/kg or show activity at 100 mg/kg which is not reinforced by similar activity at 300 mg/kg)”.

In data set [1] (600 mg/kg), `c1ccc(N2N=NCC2c2ccncc2)cc1` (stereo not drawn) [Compound 7, 1-(Phenyl)-5-(4-pyridyl)-Δ^2-1,2,3-triazoline] yielded a protection of 100%. Moreover, in data set [1], the “Anticonvulsant Activity Group Classification” value is on record as “II (Class II compounds show anticonvulsant activity at doses greater than 100 mg/kg or show activity at 100 mg/kg which is not reinforced by similar activity at 300 mg/kg)” and the “signs of neurological deficit” value was “without any signs of neurological deficit”.

Turning to `CCOC(=O)c1ccc(N2N=NCC2c2ccncc2)cc1` (stereo not drawn) [Compound 8, 1-(p-Ethoxycarbonyl)-5-(4-pyridyl)-Δ^2-1,2,3-triazoline], the “Anticonvulsant Activity Group Classification” value in data set [1] is reported as “II (Class II compounds show anticonvulsant activity at doses greater than 100 mg/kg or show activity at 100 mg/kg which is not reinforced by similar activity at 300 mg/kg)”.

With `Fc1ccc(N2N=NCC2c2ccncc2)cc1` (stereo not drawn) [Compound 10, 1-(p-Fluorophenyl)-5-(4-pyridyl)Δ^2-1,2,3-triazoline], the anticonvulsant potency entry in data set [1] is “most potent”.

Regarding `Cc1ccc(N2N=NCC2c2ccncc2)cc1` (stereo not drawn) [Compound 11, 1-(p-Methylphenyl)-5-(4-pyridyl)-Δ^2-1,2,3-triazoline], the “Anticonvulsant Activity Group Classification” value in [1] was “II (Class II compounds show anticonvulsant activity at doses greater than 100 mg/kg or show activity at 100 mg/kg which is not reinforced by similar activity at 300 mg/kg)”.

As for `Clc1cccc(N2N=NCC2c2ccncc2)c1` (stereo not drawn) [Compound 12, 1-(m-chlorophenyl)-5-(4-pyridyl)-Δ^2-1,2,3-triazoline], the protection in [1] (300 mg/kg) is 100%. Besides, in data set [1], the “Anticonvulsant Activity Group Classification” value is “II (Class II compounds show anticonvulsant activity at doses greater than 100 mg/kg or show activity at 100 mg/kg which is not reinforced by similar activity at 300 mg/kg)” and the “signs of neurological deficit” value is reported as “without any signs of neurological deficit”.

On to `c1ccc(N2N=NCC2c2ccccn2)cc1` (stereo not drawn) [Compound 13, 1-(phenyl)-5-(2-pyridyl)-Δ^2-1,2,3-triazoline], for which the “Anticonvulsant Activity Group Classification” value in data set [1] is given as “II (Class II compounds show anticonvulsant activity at doses greater than 100 mg/kg or show activity at 100 mg/kg which is not reinforced by similar activity at 300 mg/kg)”.

For `Clc1ccc(N2N=NCC2c2ccccn2)cc1` (stereo not drawn) [Compound 14, 1-(p-Chlorophenyl)-5-(2-pyridyl)-Δ^2-1,2,3-triazoline], the “Anticonvulsant Activity Group Classification” value in [1] is reported as “II (Class II compounds show anticonvulsant activity at doses greater than 100 mg/kg or show activity at 100 mg/kg which is not reinforced by similar activity at 300 mg/kg)”.

On to `O=[N+]([O-])c1cccc(N2N=NCC2c2ccc3ccccc3n2)c1` (stereo not drawn) [Compound 15, 1-(m-Nitrophenyl)-5-(2-quinolyl)-Δ^2-1,2,3-triazoline], for which the “Anticonvulsant Activity Group Classification” value in data set [1] is “II (Class II compounds show anticonvulsant activity at doses greater than 100 mg/kg or show activity at 100 mg/kg which is not reinforced by similar activity at 300 mg/kg)”.

For `FC(F)(F)c1ccc(N2N=NCC2c2ccncc2)cc1` (stereo not drawn) [Compound 16, 1-(p-trifluoromethylphenyl)-5-(4-pyridyl)-Δ^2-1,2,3-triazoline], the anticonvulsant potency entry in data set [1] is “most potent”.

`FC(F)(F)c1cccc(N2N=NCC2c2ccncc2)c1` (stereo not drawn) [Compound 17, 1-(m-trifluoromethylphenyl)-5-(4-pyridyl)-Δ^2-1,2,3-triazoline]: the anticonvulsant potency entry in [1] is recorded as “most potent”.

Consider `Fc1ccc(N2N=NCC2c2cccnc2)cc1Cl` (stereo not drawn) [Compound 18, 1-(m-chloro-p-fluorophenyl)-5-(3-pyridyl)-Δ ^2-1,2,3-triazoline], for which, in data set [1], the “Anticonvulsant Activity Group Classification” value is on record as “II (Class II compounds show anticonvulsant activity at doses greater than 100 mg/kg or show activity at 100 mg/kg which is not reinforced by similar activity at 300 mg/kg)”.

Consider `CCC1(C)CC(=O)NC1=O` (stereo not drawn) [Ethosuximide, ethosuximide], for which, in the data set “in vivo [2]” (mouse, in vivo, ip), the “Slope, regression line, HD50 (righting reflex)” value (“Slope, regression line, HD50” for short) turned out to be 16.43 and the “Time of Test / time of peak toxicity, righting reflex” value (from here on “Time of Test / time of peak toxicity”) was 1/2. Moreover, the ED50 in data set [3] (rats, p.o.) came to 54 mg/kg. Besides, the “effectiveness by the sc Pic test” value in data set [4] is “effective by the sc Met, sc Bic, and sc Pic tests”. For the same compound, the “Time of Test / time of peak effect (TPE), MES” value (shortened to “Time of Test / time … MES”) in data set [5] (i.p.) is 1/2. In addition, the “Time of Test / time of peak effect (TPE), Rotorod” value (mouse, in vivo, ip) is given as 1/2. Moreover, the “TD50 (rotorod)” value (mouse, in vivo, po) is 879.21 mg/kg. In addition, in data set [6] (mice), the “effectiveness by the sc Met test” value is “effective by the sc Met, sc Bic, and sc Pic tests”; the “ED50 sc Met” value is recorded as 130.35 mg/kg. Moreover, the “ED50 scMet” value in data set [6] (mice, p.o.) was determined as 192.71 mg/kg. For the same compound, in data set [7], the “effectiveness by the sc Bic test” value is reported as “had to be given in toxic doses to protect against sc Bic seizures”. In data set [8], the “Time of Test / time of peak effect (TPE), sc Met” value (shortened to “Time of Test / time … sc Met”) is reported as 1/2. Further, in [9], the “animals protected, sc Strych test” value is ≤ 62%.

With `C1CCc2nnnn2CC1` [Metrazol, pentylenetetrazole], the ED97 in [6] (Mus musculus, sc, read-out: sc CD97 of Metrazol) is 85 mg/kg.

Take `CCC1(c2ccccc2)C(=O)NC(=O)NC1=O` [Phenobarbital, phenobarbital]: the “Slope, regression line, HD50” value in “in vivo [2]” (mice, i.p.) worked out at 8.41. In addition, the median effective dose (ED50) in data set [3] was 11.6 mg/kg; in data set [6] (setting [13]) it was 13.2 mg/kg; in [6] (setting [14]) it was 12.6 mg/kg. Also, the “effectiveness by the sc Pic test” value in data set [4] is “effective against sc Met, sc Bic, and sc Pic in nontoxic doses”. Also, the “ED50 MES” value in data set [5] (i.p.) is on record as 21.78 mg/kg; in data set [5] (p.o.), 20.09 mg/kg. In addition, the “Time of Test / time … MES” value in data set [5] (i.p.) was 1 h. The “Time of Test / time … sc Met” value in data set [6] (mice) turned out to be 1 h. In data set [7], the “effectiveness by the sc Bic test” value was “effective against sc Met, sc Bic, and sc Pic in nontoxic doses”. In data set [10], the TPE result was “five”. Also, the “effectiveness by the sc Strych test” value in data set [9] is listed as “had to be given in toxic doses in order to protect; also recorded: effective in toxic doses”.

As to `O=C1NC(=O)C(c2ccccc2)(c2ccccc2)N1` [Phenytoin, phenytoin], the “Slope, regression line, HD50” value in “in vivo [2]” (mice, i.p.) was 14.03. For the same compound, the “Time of Test / time of peak toxicity” value in “in vivo [2]” (mouse, in vivo, ip) was 12 h. In addition, the “TPE by all tests” value in data set [11] came out at 2 h. Besides, the “effectiveness by the sc Pic test” value in data set [4] was “ineffective against Metrazol, bicuculline, and picrotoxin”. In addition, where the note is “mice, i.p.”, the “Time of Test / time of peak effect (TPE), Rotorod” value came to 2 h. Further, in [6] (mice), the “effectiveness by the sc Met test” value was “ineffective against Metrazol, bicuculline, and picrotoxin”. The “ED50 sc Met” value in data set [6] (mice, listed as phenytion) is recorded as “did not protect against subcutaneous Metrazol seizures”. Also, the “effectiveness by the sc Bic test” value in data set [7] is “ineffective against Metrazol, bicuculline, and picrotoxin”. In data set [9], the “animals protected, sc Strych test” value is given as 50%.

Consider `CCCC(CCC)C(=O)O` [Valproate, valproate], for which the “HD50 (righting reflex)” value in “in vivo [2]” (mice, i.p.) came to 885.53 mg/kg. In addition, the “Slope, regression line, HD50” value in “in vivo [2]” (mice, i.p.) is recorded as 12.46. In addition, the “Time of Test / time of peak toxicity” value in “in vivo [2]” (mice, i.p.) is listed as 1/4. The ED50 in data set [3] (rats, p.o.) amounted to 180 mg/kg; in [6] (setting [13]), 149 mg/kg; in data set [6] (setting [14]) it was 388 mg/kg. Moreover, the “Time of Test / time … MES” value in data set [5] (i.p.) is recorded as 1/4. Moreover, in the data set “in vivo [12]”, the “LD50 (lethality)” value was found to be 1104.62 mg/kg. Moreover, the “Time of Test / time … sc Met” value in [6] (mice) is given as 1/4.

Regarding picrotoxin, in [4] (subcutaneous), the “sc CD97 of picrotoxin” value is reported as 3.15 mg/kg.
